Results as given in ChEMBL document CHEMBL1201862, “PubChem BioAssay data set” (2004).
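Results reflect a 48-hour exposure of cells in 96-well plates to compound at five concentrations. Here, GI50 denotes the concentration required for 50% inhibition of growth.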 The source made the active and inactive calls. Rule as the data show it: active = GI50 up to about 1.1 µM and inactive = higher.

How the values were obtained:
Assay in all cases: inhibition of tumour cell growth, NCI panel, 48 h
786-0 = test system: 786-0
A498 = test system: A498
CCRF-CEM = test system: CCRF-CEM
EKVX = test system: EKVX
HL-60 = test system: HL-60
HOP-62 = test system: HOP-62
K562 = test system: K562
MCF7 = test system: MCF7
MDA-N = test system: MDA-N
NCI-H226 = test system: NCI-H226
NCI/ADR-RES = test system: NCI/ADR-RES
OVCAR-4 = test system: OVCAR-4
PC-3 = test system: PC-3
RPMI-8226 = test system: RPMI-8226
SF-268 = test system: SF-268
SF-539 = test system: SF-539
SNB-75 = test system: SNB-75
TK-10 = test system: TK-10
UO-31 = test system: UO-31
HCC 2998 = test system: HCC 2998

| Structure (SMILES) | GI50 (786-0) | GI50 (A498) | GI50 (CCRF-CEM) | GI50 (EKVX) | GI50 (HL-60) | GI50 (HOP-62) | GI50 (K562) | GI50 (MCF7) | GI50 (MDA-N) | GI50 (NCI-H226) | GI50 (NCI/ADR-RES) | GI50 (OVCAR-4) | GI50 (PC-3) | GI50 (RPMI-8226) | GI50 (SF-268) | GI50 (SF-539) | GI50 (SNB-75) | GI50 (TK-10) | GI50 (UO-31) | GI50 (HCC 2998) |
| --- | --- | --- | --- | --- | --- | --- | --- | --- | --- | --- | --- | --- | --- | --- | --- | --- | --- | --- | --- | --- |
| OCCCNCc1ccccn1 | > 100 µM (inactive) | > 100 µM (inactive) | > 100 µM (inactive) | > 100 µM (inactive) | 68.1 µM (inactive) | > 100 µM (inactive) | > 100 µM (inactive) | > 100 µM (inactive) | > 100 µM (inactive) | > 100 µM (inactive) | > 100 µM (inactive) | > 100 µM (inactive) | > 100 µM (inactive) | > 100 µM (inactive) | > 100 µM (inactive) | > 100 µM (inactive) | > 100 µM (inactive) | > 100 µM (inactive) | > 100 µM (inactive) |  |
| CN(CC(=O)O)Cc1c[nH]c2ccccc12 | > 100 µM (inactive) | > 100 µM (inactive) | > 100 µM (inactive) | > 100 µM (inactive) | > 100 µM (inactive) | > 100 µM (inactive) | > 100 µM (inactive) | > 100 µM (inactive) | > 100 µM (inactive) | > 100 µM (inactive) | > 100 µM (inactive) | > 100 µM (inactive) | > 100 µM (inactive) | > 100 µM (inactive) | > 100 µM (inactive) | > 100 µM (inactive) | > 100 µM (inactive) | > 100 µM (inactive) | > 100 µM (inactive) |  |
| COC(=O)CCCCC/C(=C\C(=O)C(Cl)(Cl)Cl)OC | 24.9 µM (inactive) | 40.8 µM (inactive) | 15.4 µM (inactive) | 24.7 µM (inactive) | 22.3 µM (inactive) | 33.7 µM (inactive) | 26.8 µM (inactive) | 23.3 µM (inactive) | 24 µM (inactive) |  | 30.5 µM (inactive) | 19.5 µM (inactive) | 27.8 µM (inactive) | 20.4 µM (inactive) | 24.4 µM (inactive) | 18.6 µM (inactive) | 21.4 µM (inactive) | 29.4 µM (inactive) | 84.5 µM (inactive) | 15.9 µM (inactive) |
| O=C(c1ccccc1)c1ccc(N2C(=O)/C(=C/c3ccccc3S)N=C2c2ccccc2)c(N2C(=O)/C(=C/c3ccccc3S)N=C2c2ccccc2)c1 | > 100 µM (inactive) | 60.7 µM (inactive) | 22.2 µM (inactive) | > 100 µM (inactive) | 11.8 µM (inactive) | 40.7 µM (inactive) | 48.9 µM (inactive) | 45.6 µM (inactive) | 36.5 µM (inactive) |  | 32.4 µM (inactive) | 38.3 µM (inactive) | 42.6 µM (inactive) | 21.9 µM (inactive) | 39.9 µM (inactive) | 21.3 µM (inactive) | 21.2 µM (inactive) | > 100 µM (inactive) | 84.5 µM (inactive) | 35.7 µM (inactive) |
| O=[N+]([O-])c1cccc([N+](=O)[O-])c1S(=O)(=O)c1ccccc1 | 2.09 µM (inactive) | 18.8 µM (inactive) | < 0.01 µM (active) | 21.2 µM (inactive) | 2.71 µM (inactive) | 19.9 µM (inactive) |  | 5.87 µM (inactive) | 5.51 µM (inactive) | 12.2 µM (inactive) | 6.24 µM (inactive) |  | 11.9 µM (inactive) | 1.46 µM (inactive) | 12.2 µM (inactive) | 15.8 µM (inactive) |  | 16 µM (inactive) | 1.86 µM (inactive) |  |
| Cc1ncc(CO)c(CN)c1O | > 100 µM (inactive) | > 100 µM (inactive) | > 100 µM (inactive) | > 100 µM (inactive) | 41.9 µM (inactive) | > 100 µM (inactive) | > 100 µM (inactive) | > 100 µM (inactive) | > 100 µM (inactive) | > 100 µM (inactive) | > 100 µM (inactive) | > 100 µM (inactive) | > 100 µM (inactive) | > 100 µM (inactive) | > 100 µM (inactive) | > 100 µM (inactive) |  | > 100 µM (inactive) | > 100 µM (inactive) | > 100 µM (inactive) |
| O=c1[nH]nc(Cc2ccc(Cl)cc2)n1O | > 100 µM (inactive) | > 100 µM (inactive) | > 100 µM (inactive) | > 100 µM (inactive) | > 100 µM (inactive) | > 100 µM (inactive) | > 100 µM (inactive) | > 100 µM (inactive) | > 100 µM (inactive) | > 100 µM (inactive) | > 100 µM (inactive) | > 100 µM (inactive) | > 100 µM (inactive) | > 100 µM (inactive) | > 100 µM (inactive) | > 100 µM (inactive) |  | > 100 µM (inactive) | > 100 µM (inactive) | > 100 µM (inactive) |
| Cc1cc(C)n(CN(Cn2nc(C)cc2C)c2ccc(N(Cn3nc(C)cc3C)Cn3nc(C)cc3C)cc2)n1 | 19.3 µM (inactive) | 22.2 µM (inactive) | 14.4 µM (inactive) | 26.9 µM (inactive) | 30.5 µM (inactive) | 25.8 µM (inactive) | 18.7 µM (inactive) | 20.3 µM (inactive) | 18.9 µM (inactive) |  | 19.1 µM (inactive) | 17.2 µM (inactive) | 23.7 µM (inactive) | 13.4 µM (inactive) | 24.8 µM (inactive) | 18.1 µM (inactive) |  | 29.9 µM (inactive) | 28.4 µM (inactive) |  |
| Cc1ccc(S[C@@H](C)[C@@](O)(C(N)=O)c2ccccc2)cc1 | 72.6 µM (inactive) |  | 7.67 µM (inactive) | 13.9 µM (inactive) | 37.3 µM (inactive) | 23.6 µM (inactive) | 15 µM (inactive) | 44.8 µM (inactive) | 33.8 µM (inactive) | 64.4 µM (inactive) | 19.9 µM (inactive) | 21 µM (inactive) | 35.4 µM (inactive) | 21.7 µM (inactive) | > 100 µM (inactive) | 25.6 µM (inactive) | > 100 µM (inactive) | > 100 µM (inactive) | 15.2 µM (inactive) | > 100 µM (inactive) |
| C1=N/CCNCCNCC/N=C/c2ccccc2OCc2cccc(n2)COc2ccccc2/1 | 64.6 µM (inactive) | > 100 µM (inactive) | 16.2 µM (inactive) | > 100 µM (inactive) | 28 µM (inactive) | 35.2 µM (inactive) | 24.7 µM (inactive) | 21.2 µM (inactive) | 15.2 µM (inactive) | 66.8 µM (inactive) | 23.1 µM (inactive) | 47 µM (inactive) | 34 µM (inactive) | 28.4 µM (inactive) | 47.2 µM (inactive) | 26.1 µM (inactive) | 67.9 µM (inactive) |  | 72.8 µM (inactive) |  |
| OC[C@]1(n2nc3ccccc3n2)OC[C@@H]1c1ccccc1 | 34.8 µM (inactive) | 60.5 µM (inactive) | 36.1 µM (inactive) | > 100 µM (inactive) | 31.4 µM (inactive) | 39.3 µM (inactive) | 56.9 µM (inactive) | 33.7 µM (inactive) | 53.7 µM (inactive) | 32.2 µM (inactive) | 57.3 µM (inactive) | 16.9 µM (inactive) | 70 µM (inactive) | 26.9 µM (inactive) | 30.8 µM (inactive) | 25.2 µM (inactive) |  | 60.4 µM (inactive) | 95.3 µM (inactive) | > 100 µM (inactive) |
| COC(=O)C12OC3CO[Si](C(C)C)(C(C)C)O[Si](C(C)C)(C(C)C)OC3C1Oc1nc(=O)ccn12 (configuration not stated) | 17.7 µM (inactive) | 23.7 µM (inactive) | 17.3 µM (inactive) | 16.7 µM (inactive) | 23.4 µM (inactive) | 18.1 µM (inactive) | 15.4 µM (inactive) | 16 µM (inactive) | 18 µM (inactive) | 15.8 µM (inactive) | 15.6 µM (inactive) | 17.1 µM (inactive) | 15.3 µM (inactive) | 13.7 µM (inactive) | 12 µM (inactive) | 16.4 µM (inactive) |  | 17.1 µM (inactive) | 16.3 µM (inactive) |  |
| COC(=O)c1cc(C(=CCC[C@H]2CC[C@@]3(C)C(CCC4C3CC[C@@]3(C)C4CC[C@@H]3C(C)CCCC(C)C)C2)c2cc(Cl)c(O)c(C(=O)OC)c2)cc(Cl)c1O (some centres not stated) | > 10 µM (inactive) |  | > 10 µM (inactive) | > 10 µM (inactive) | > 10 µM (inactive) | > 10 µM (inactive) | > 10 µM (inactive) | > 10 µM (inactive) | > 10 µM (inactive) | > 10 µM (inactive) | > 10 µM (inactive) | > 10 µM (inactive) | > 10 µM (inactive) | > 10 µM (inactive) | > 10 µM (inactive) | > 10 µM (inactive) | > 10 µM (inactive) | > 10 µM (inactive) | > 10 µM (inactive) | > 10 µM (inactive) |
| Oc1ccc(-c2nc3ccccc3s2)cc1 | 27.1 µM (inactive) | 47.4 µM (inactive) | 26.2 µM (inactive) | 21.5 µM (inactive) | 30.3 µM (inactive) | 37 µM (inactive) | 29 µM (inactive) | 33.6 µM (inactive) | 32.9 µM (inactive) | 43.3 µM (inactive) | 31.8 µM (inactive) | 48.1 µM (inactive) | 32.1 µM (inactive) | 27.1 µM (inactive) | 31.5 µM (inactive) | 47.8 µM (inactive) | 37.4 µM (inactive) |  | 51.5 µM (inactive) |  |
| COc1ccc([C@@]23Oc4cc(OC)cc(OC)c4[C@]2(O)[C@H](O)[C@H](C(N)=O)[C@H]3c2ccccc2)cc1 [DIDESMETHYLROCAGLAMIDE] | < 0.01 µM (active) | < 0.01 µM (active) | < 0.01 µM (active) | < 0.0106 µM (active) | < 0.0192 µM (active) | < 0.01 µM (active) | < 0.01 µM (active) | < 0.01 µM (active) | < 0.01 µM (active) | < 0.01 µM (active) | 0.0656 µM (active) | < 0.0126 µM (active) | < 0.01 µM (active) | < 0.01 µM (active) | < 0.01 µM (active) | < 0.01 µM (active) |  | 0.0105 µM (active) | < 0.0161 µM (active) | < 0.01 µM (active) |
